These results are taken from the METLIN SMRT retention time set (Domingo-Almenara et al. 2019).

The data set in a line: gradient 5% acetonitrile 3 min, to 50% in 2 min, to 85% in 15 min, held 3 min, 100 µL/min. The following applies: column: Zorbax Extend-C18 2.1 x 50 mm; eluents: water / acetonitrile, 0.1% formic acid. In a few lines:
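The mobile phases were water and acetonitrile, each with 0.1% formic acid, pumped at 100 μL/min through a Zorbax Extend-C18 column (2.1 × 50 mm, 1.8 μm). Pure standards were injected as mixtures of ~100 molecules and detected by a quadrupole time-of-flight mass spectrometer in positive and negative ionization mode. Retention time came from computationally picked adduct peaks, each inspected by hand.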
Consider `COCCN1C(=O)CCC2(C(=O)NCc3ccc(Cl)cc3)CCCC=C12` (stereo not drawn), for which the RP-LC retention time stood at 787 s.

In turn, `COc1ccc(Cl)cc1NC(=O)NCCn1c(-c2ccncc2)nc2cccnc21` returned an RP-LC retention time of 659 s.

Regarding `Cc1cc(C)n(-c2ccc(=O)n(CC(=O)N3CCN(c4ncccn4)CC3)n2)n1`, the RP-LC retention time was found to be 623 s.

`CCNc1nc(Nc2cc(F)c(C(=O)N3CCOCC3)cc2OC)ncc1C(F)(F)F` had an RP-LC retention time of 915 s.

`CCOc1ccccc1NC(=O)Cn1c(-c2ccccc2)nc(CC)cc1=O` gave an RP-LC retention time of 1320 s.

As for `CC(NC(=O)c1cn(-c2ncccc2-c2nc(-c3ccccc3)no2)cn1)c1ccccc1` (stereo not drawn), the RP-LC retention time turned out to be 966 s.

`Cc1ccc(-c2cn3ccn(-c4ccc(C)c(C)c4)c(=O)c3n2)cc1` yielded an RP-LC retention time of 931 s.

`CN(C)C(=O)c1ccc2c(c1)nc(CN(C)C(=O)Nc1ccccc1Br)n2C` yielded an RP-LC retention time of 618 s.

As to `CCOCCCNCc1ccc(-c2ccc(OC)c(Cl)c2)o1`, the RP-LC retention time came out at 705 s.

Turning to `Cc1nc(-c2ccccn2)cc2nn(CC(=O)N3CCOCC3)c(=O)n12`, the RP-LC retention time came out at 754 s.

Compound `CN(Cc1ccccc1)C(=O)c1ccc2c(c1)CCCN2S(C)(=O)=O` gave an RP-LC retention time of 841 s.

`CCCNC(=O)C1CCCN(c2ccc(SCC(=O)Nc3ccc(F)c(F)c3)nn2)C1` (stereo not drawn) showed an RP-LC retention time of 662 s.

Turning to `O=C(NCCCn1cccn1)c1c(OCC2CC2)cc(=O)n2c1CCCCC2`, the RP-LC retention time is 634 s.

As to `CCCC(=O)NC1CCN(c2ccc(F)cc2)C1=O` (stereo not drawn), the RP-LC retention time was 659 s.

`CC(Cc1cccs1)NS(=O)(=O)c1ccc2c(c1)OCCO2` (stereo not drawn) showed an RP-LC retention time of 840 s.

In turn, `CN1C(=O)COc2cc(-c3noc(C(=O)NCc4cccnc4)n3)ccc21` had an RP-LC retention time of 613 s.

Compound `Cc1nc2sc(C)c(C)n2c(=O)c1NC(=O)c1ccc(Br)o1` displayed an RP-LC retention time of 688 s.

`Cc1cccc(-c2noc(CSc3nccn3-c3ccccc3)n2)c1` came in with an RP-LC retention time of 969 s.

`Cc1ccc2nsnc2c1NC(=O)Cn1c(-c2cncs2)nc2ccccc21`: the RP-LC retention time was 682 s.

Regarding `CCc1nc2cc(N3CCC(C(=O)NCc4ccccc4F)CC3)cnc2nc1CC`, the RP-LC retention time is 840 s.

`Cc1ccc(F)cc1-n1cc(C(=O)O)c2ccccc2c1=O`: the RP-LC retention time was found to be 791 s.

The compound `CS(=O)(=O)N1CCC(C(=O)Nc2ccc(Br)cc2F)Oc2ccccc21` (stereo not drawn) registered an RP-LC retention time of 990 s.

Turning to `CCNC(=O)C1CCCN(c2nc3ncn(CC(=O)Nc4ccc5c(c4)CCC5)c(=O)c3s2)C1` (stereo not drawn), the RP-LC retention time is 717 s.

`Cc1cccc(NC(=O)Cc2c(C)n(C)c3nc(-c4ccccc4)nn3c2=O)c1` gave an RP-LC retention time of 824 s.

With `O=C(CC1CCCC1)N1CCCC1c1nc(C2CCOCC2)no1` (stereo not drawn), the RP-LC retention time turned out to be 780 s.

As for `Cc1sc(NC(=O)Cc2csc(-c3ccccc3)n2)nc1-c1ccc(Cl)cc1`, the RP-LC retention time amounted to 1280 s.

Consider `Cc1nnc(C2CCCCCN2C(=O)c2ccoc2C)o1` (stereo not drawn), for which the RP-LC retention time came out at 699 s.

In the case of `CCn1cnc(S(=O)(=O)N2CCCC(C(=O)NCc3ccc(C)cc3)C2)c1` (stereo not drawn), the RP-LC retention time was 803 s.

In the case of `CC(=O)Nc1ccc(-c2noc(C3CCN(C(=O)CCC4CCCC4)CC3)n2)cc1`, the RP-LC retention time stood at 924 s.

Compound `CN(CCNC(=O)c1ncoc1-c1ccco1)Cc1ccccc1` registered an RP-LC retention time of 630 s.

Compound `O=C(c1ccc(F)c(F)c1)N1CCN(CCn2cccn2)CC1` came in with an RP-LC retention time of 543 s.

`CC(C)NC(=O)c1cccn(-c2ccc(NC(=O)C(C)(C)C)cc2)c1=O` came in with an RP-LC retention time of 749 s.

Compound `CN(C)CCNC(=O)C1CCN(c2nc3ccc(-c4ccc(F)cc4)nc3s2)CC1` had an RP-LC retention time of 686 s.
